Key:
CD4+ Th17 cells = assay: Modulation of Th17 populations in human PBMCs (flow cytometry); assay type: cell-based; settings: 10 μM, 3 day assay
Protocol: Human peripheral blood mononuclear cells (PBMCs) were isolated from four healthy donors. Four experiments were conducted and analyzed by flow cytometry over 3 day assay. The control group had no drug treatment, a second were treated with 10 μM Compound 1, a third group was stimulated with PHA/IL-2 without treatment, and the fourth group was stimulated with PHA/IL-2 and incubated with 10 μM Compound 1. […] Further, Compound 1 has no effect on Th17 populations in the absence of PHA/IL-2 stimulation.

[1] = test system: high-fat-fed C57BL/6 mice; assay: High-fat-diet C57BL/6 mice, Compound 1 7.5 mg/kg with antagomiR-control or antagomiR-122; assay type: in vivo
Protocol: C57BL/6 mice were fed a 50% high fat diet (HFD) for four weeks. The control cohort received three hydrodynamic tail vein injections of a 5 μg antagomiR-control and six i.p injections of saline over three weeks. A second cohort was hydrodynamic tail vein injected with 5 μg antagomiR-122 (the reverse complement that inhibits activity of miR-122) three times and i.p injections of saline six times over three weeks. A third cohort was injected i.p. with Compound 1 (7.5 mg/kg) twice a week plus antagomiR-control once a week over the course of 3 weeks. The final cohort was injected i.p. with Compound 1 (7.5 mg/kg) twice a week plus antagomiR-122 injections once a week over the course of 3 weeks.
High Fat diet fed mice. C57BL/6 male mice were fed for 8 weeks a 50% high fat diet (Envigo, DIETTD150235). All mice were kept in a pathogen-free facility, under a 12 h light/dark cycle. Research on mice was approved by the Hebrew University Institutional Animal Care and Ethics Committee.
Compound 1 and AntagomiR injections to mice. C57BL/6 male mice, 7-8 weeks old, or Sgp130FC, 9-month-old male mice, were injected i.p. with 7.5 mg/kg Compound 1 dissolved in saline and 3% DMSO. Saline was injected as control. Mice were hydrodynamic tail vain injected with antagomiR-122 or antagomiR-control (negative control) (5 μg/mouse in 1.5 ml saline). Mice were sacrificed according to the legend of the figure describing the experimental results and the livers, white adipose and skeletal muscle tissues were frozen in liquid nitrogen or in OCT embedded frozen blocks, for further RNA and histologic analysis. AntagomiRs were obtained from Sigma Aldrich, see Table 3.
Triglycerides and β-hydroxybutyrate quantification. To determine the liver and muscle lipid content, muscle and liver tissues (40-80 mg) were homogenized in 0.5 ml of chloroform: Tris solution (v/v, 1:1), the homogenate was transferred to 1 ml of chloroform: methanol solution (v/v, 2:1) centrifuged at 3000 rpm for 10 min. The organic phase was mixed with 5% Triton X100 in chloroform, dried and re-dissolved in water. After lipid extraction, TG concentration in samples was measured with Triglyceride Quantification Kit (BioVision), according to the manufactures instructions. β-hydroxybutyrate was determined utilizing commercial colorimetric kits (BioVision) directly from plasma samples.
In an effort to determine whether the mechanism of action of miR-122 and Compound 1 are aligned at the same pathway, an experiment was designed in which both molecules, together and each separately, were administered. In this study, mice were fed with a 50% HFD and therapy was initiated 4 weeks after the animals were already on a diet, to establish NASH prior to treatment. Therapies (antagomiRs given once a week, due to a prolonged half time, and RS twice weekly, due to a plasma t/2 of 2.7 hrs) were initiated after 4 weeks and given for 3 weeks. The mice were weighed from week 3 and therapies initiated a week later. […] The liver was further analyzed to assess lipotoxicity. […] A surrogate marker for energy expenditure, β-hydroxybutyrate, was also measured. A reduction in energy expenditure is associated with reduced miR-122, and energy expenditure increased upon treating with Compound 1.
Male C57BL/6J mice, 7 to 8 weeks old, were housed randomly in standard cages and were fed a HFD, or atherogenic diet (consisting 1% Chol and 0.5% cholic acid, see also Table 3). All mice had free access to water during the experimental period. During the feeding period body weight was monitored every 3 days. In the HFD experiment, after 4 or 6 weeks, the resultant obese mice were treated with antagomiR-122 ([…] once a week for 3 weeks), or i.p. injected with Compound 1 (RORα agonist, 7.5 mg/kg twice a week for 3 weeks; or 15 mg/kg 3 times a week for 3 weeks). The obese control (HFD) group was administered only saline with DMSO and antagomiR-control. […]

[2] = test system: C57BL/6 mice fed with high fat diet (HFD); assay: HFD-fed C57BL/6 mouse model of NASH, Compound 1 15 mg/kg; assay type: in vivo
Protocol: To determine the liver and muscle lipid content, muscle and liver tissues (40-80 mg) were homogenized in 0.5 ml of chloroform: Tris solution (v/v, 1:1), the homogenate was transferred to 1 ml of chloroform:methanol solution (v/v, 2:1) centrifuged at 3000 g (at −2° C.) for 10 min (Heraeus Megafuge 16R centrifuge). The organic phase was mixed with 5% Triton X100 in chloroform, dried and re-dissolved in water. After lipid extraction, triglyceride (TG) concentration in samples was measured with Triglyceride Quantification Kit (BioVision), according to the manufactures instructions. Plasma Free fatty acids and β-hydroxybutyrate were determined utilizing commercial colorimetric kits (BioVision) directly from plasma samples.
Male C57BL/6J mice, 7 to 8 weeks old, were housed randomly in standard cages and were fed a HFD, or atherogenic diet (consisting 1% Chol and 0.5% cholic acid, see also Table 3). All mice had free access to water during the experimental period. During the feeding period body weight was monitored every 3 days. In the HFD experiment, after 4 or 6 weeks, the resultant obese mice were treated with antagomiR-122 ([…] once a week for 3 weeks), or i.p. injected with Compound 1 (RORα agonist, 7.5 mg/kg twice a week for 3 weeks; or 15 mg/kg 3 times a week for 3 weeks). The obese control (HFD) group was administered only saline with DMSO and antagomiR-control. After 3 weeks of treatment mice were sacrificed and livers were taken for RNA-seq analysis. Livers, white adipose, and skeletal muscle tissues were frozen in liquid nitrogen or in optimum cutting temperature embedded frozen blocks, for further RNA and histologic analysis. In the atherogenic diet experiment mice were treated with 15 mg/kg Compound 1 after 3 weeks with the diet. After 3.5 weeks of treatment, mice were sacrificed, and the livers were frozen in liquid nitrogen or in optimum cutting temperature embedded frozen blocks. Plasma was collected from atherogenic diet-fed mice and saved in −20° C. for ALT and AST analysis using the Reflotron® Analyzer and test-strips (Roche).
Experimental design: C57BL/6 mice fed for 6 weeks with high fat diet (HFD) were injected with 15 mg/kg Compound 1 (or saline+DMSO) 3 times a week for 3 weeks (n=6).
Experimental design: C57BL/6 mice fed for 6 weeks with HFD were injected with 15 mg/kg Compound 1 (or saline+DMSO) 3 times a week for 3 weeks (n=6).

[3] = 15 mg/kg 3 times a week for 3 weeks

O=C1Nc2cc(C(=O)N3CCC(Cc4ccccc4)CC3)ccc2Nc2ccccc21 [Compound 1]
total viability of CD4+ T cells (CD4+ Th17 cells; even under PHA/IL-2 stimulation): no effect
Th17 total population, presence of PHA/IL-2 stimulation (CD4+ Th17 cells; relative to vehicle-control): decreases
Th17 populations, absence of PHA/IL-2 stimulation (CD4+ Th17 cells; unstimulated): no effect
body weight, co-administration with antagomir-122 ([1]; 7.5 mg/kg i.p. twice a week plus antagomiR-122 once a week, 3 weeks): did not decrease
body weight at the end of the experiment compared to the control group ([1]; 7.5 mg/kg i.p. twice a week plus antagomiR-control, 3 weeks): statistically lower
secretion of miR-122 (plasma) ([1]; 7.5 mg/kg i.p. twice a week, 3 weeks): enhanced
TG content in the muscle ([1]; 50% HFD, treatment for 3 weeks): decreased
energy expenditure (surrogate marker β-hydroxybutyrate) ([1]; 50% HFD, treatment for 3 weeks): increased
hepatic lipid droplets and TG content ([1]; 50% HFD, treatment for 3 weeks): reduced
body weight at end of experiment [2, 3]: significantly reduced
decrease of (liver) triglyceride levels compared to untreated HFD mice [2, 3]: 5 fold
expression and secretion of miR-122 and precursors in plasma and liver [2, 3]: induced
hepatic lipid droplets [2, 3]: reduced
liver/body weight ratio, treated vs untreated group [2, 3]: decrease
expression of RORα-regulated genes FGF21 and Gpase6 ([2]; 15 mg/kg 3 times a week for 3 weeks, liver): significantly induced
WAT inflammation ([2]; mice with established NASH on HFD): reducing

Source: US12318393B2, “Modulators of orphan nuclear receptors for NASH and other metabolic disorders” (Emory University, priority 2018, dated 2025)
